Test results reported in patent US8003324B2, “Modulation of sodium channels by nicotinamide adenine dinucleotide” (U.S. Department of Veterans Affairs, priority 2007, dated 2011).
Values joined by “and” are separate entries in the source; they are usually repeats but may differ in a detail not shown here. Equal values may be shown once. “Also recorded” adds a separate entry of the source.

Tests used:
[1] = target: T1, human cardiac Na^+ channel (SCN5A) (Homo sapiens, UniProt Q14524); experiment: Whole-cell patch clamp Na+ current in HEK cells stably expressing SCN5A; type: cell-based; conditions: for effect on peak Na+ current (in words): versus SCN5A cells
T1 construct: expressed in transfected cells
Experimental: HEK cells stably transfected with two different Na^+ channel constructs were used, SCN5A-IRES-GFP and SCN5A-GFP fusion constructs. Cloning and establishment of the cell lines has been delineated previously (11). The HEK 293 cell line stably expressing a SCN5A-IRES-GFP construct was maintained by antibiotic selection using Geneticin (G-8168, Sigma-Aldrich) at a concentration of 0.2 mg/mL was used for patch clamp study. GFP was used as a marker to identify cells expressing the cardiac Na^+ channel. The cells were cultured in 6 well plates with Dulbecco's Modified Eagle's medium (DMEM), 10% fetal bovine serum and 1% pen-strep. Cells were stored in a 5% CO2 incubator at 37° C. for 1-2 days. GPD1-L (the A280V mutant or wild-type) was transiently co-transfected into HEK 293 cells. GPD1-L vectors have been described in London et al.
The effects of external NADH or NAD^+ on sodium current were determined by incubating HEK 293 cells overnight (12-14 h) with NADH/NAD^+ (300 μM) added to the media. The effects of internal NADH or NAD^+ (100 μM) on sodium current were tested by adding the compounds to the pipette solution.
Cells expressing GFP were tested with the whole cell patch-clamp technique in voltage-clamp mode to measure Na^+ current levels. For patch-clamping, HEK cells were plated onto plastic coverslips 2-3 h before the recordings. Glass pipettes were pulled on a Sutter Model P-97 horizontal puller to a resistance of 1-2 MΩ. The glass pipettes were filled with a pipette solution containing (in mmol/L): CsCl 80, Cesium Aspartate 80, EGTA 11, MgCl2 1, CaCl2 1, HEPES 10, Na2ATP 5 and pH 7.4 with CsOH. The bath solution consisted of (in mmol/L): NaCl 130, CsCl 5, CaCl2 2, MgCl2 1.2, HEPES 10 and Glucose 5 (titrated to pH 7.4 with CsOH). Once a seal was established, a small amount of suction was applied to obtain the whole cell configuration. A stepped voltage protocol from −100 to +60 mV from a holding potential of −100 mV was applied to establish the presence of voltage-gated Na^+ channels. Currents obtained during steps to −10 mV were used for comparison in determining the relative reduction in sodium current. Cells were tested at 25° C. In all recordings, 80% of the series resistance was compensated, yielding a maximum voltage error of ˜1 mV. Data were sampled at 10 kHz and later filtered at 5 kHz for analysis. Currents were recorded and analyzed with an Axopatch 200B amplifier, Axon Digidata 1230A A/D converter and pClamp software (Molecular Devices Corporation, Sunnyvale, Calif.).
Using HEK 293 cells stably expressing the SCN5A-IRES-GFP construct, we measured the effect of treatments on the Na^+ current. Cells were cultured in 6-well plates in a […] incubator at 37° C. WT or MT GPD1-L was transiently transfected into HEK 293 cells as described previously in London et al. Other treatments included extracellular NADH or NAD^+ (300 μM) for […] or NADH or NAD^+ (100 μM) in the patch pipette solution. Apocynin (100 μM, Sigma) was added to cells 4-6 h prior to treatment with NADH and continuing for the entire extracellular NADH incubation. Na^+ current levels were measured from GFP-expressing cells using the whole-cell patch clamp technique in voltage-clamp mode at room temperature. HEK cells were dissociated by trypsin-EDTA, and replated onto plastic coverslips 2-3 h before the recordings. Glass pipettes were pulled on a Sutter Model P-97 horizontal puller to a resistance of 1-2 MΩ. The glass pipettes were filled with a pipette solution containing (in mM): CsCl 80, cesium aspartate 80, EGTA 11, MgCl2 1, CaCl2 1, HEPES 10, and Na2ATP 5 (adjusted to pH 7.4 with CsOH). The bath solution consisted of (in mM): NaCl 130, CsCl 5, CaCl2 2, MgCl2 1.2, HEPES 10 and Glucose 5 (adjusted to pH 7.4 with CsOH). Once a seal was established, a small amount of suction was applied to obtain the whole-cell configuration. […]

[2] = test system: human SCN5A fused at the C-terminus to GFP (SCN5A-GFP fusion); experiment: Na+ channel tracking (confocal microscopy of SCN5A-GFP fusion in HEK cells); type: cell-based
Experimental: An SCN5A constructed fused at the C-Terminus to GFP (SCN5A-GFP fusion) was stably transfected in HEK cells and grown on glass bottom 14 mm microwell dishes (MatTek Corporation, Ashland, Mass., USA). A Nikon (Melville, N.Y.) Diaphot 200 inverted microscope with a fluorescent lamp was used to identify cells expressing GFP. Cells expressing GFP were transiently co-transfected with MT GPD1-L or incubated overnight with NADH. Fixation was performed by washing the coverslip three times with DPBS (Dulbecco's Phosphate Buffered Saline 1× of GIBCO) and exposing them to 4% paraformaldehyde in PBS at pH 7.4. […] GFP fluorescence was observed using a 507 nm narrow bandpass filter and a 60× oil 1.4 NA objective. Quantification was done using ImageJ software.
For these experiments, a construct of human SCN5A fused at the C-terminus to GFP (SCN5A-GFP fusion) was stably transfected in HEK cells and grown on the glass bottom of 14-mm microwell dishes (MatTek Corporation, Ashland, Mass., USA). […] For imaging Na^+ channels, GFP was excited at 488 nm with an argon ion 30 mW water-cooled laser, and GFP fluorescence was observed using a 507 nm narrow bandpass filter and a 60× oil 1.4 NA objective. Quantification was done using ImageJ software.

[3] = test system: HEK 293 cell (SCN5A); type: cell-based; conditions: human, 24 h
Experimental: Human embryonic kidney (HEK) cell line was used for all experiments. A HEK cell line stably expressing a SCN5A-IRES-GFP construct as described in our previous study (Arnold et al., Hearth Rhythm 4:46-53 (2007)) was maintained by antibiotic selection using 0.2 mg/mL Geneticin (G-8168, Sigma-Aldrich). Cells were cultured in Dulbecco's modified Eagle's medium (DMEM; ATCC, Manassas, Va.) with 10% fetal calf serum (ATCC) at 37° C. in 60 mm×15 mm cell culture dishes (Corning Incorporated, Corning, N.Y.) until 70-80% confluence. After reaching confluence, cells were exposed to NADH (Sigma, St. Louis, Mo.) or NAD^+ (Sigma) in culture medium for a total of 12-14 h in triplicate. Experiments were repeated three times. After dissociation with 0.125% trypsin-EDTA, 40 μL of 0.4% Trypan-blue (Sigma, St. Louis, Mo.) was added to each well, and a Trypan-blue exclusion viability assay was performed.
As previously described, we maintained a human embryonic kidney (HEK) cell line that stably expresses the human cardiac Na^+ channel (SCN5A) with antibiotic selection using 0.2 mg/mL geneticin (G-8168, Sigma-Aldrich, St. Louis, Mo.) (23). Expression of SCN5A was linked to green fluorescent protein (GFP) expression by an internal ribosomal entry site (SCN5A-IRES-GFP). Cells were cultured in Dulbecco's modified Eagle's medium (DMEM; ATCC, Manassas, Va.) with 10% fetal calf serum (ATCC) at 37° C. in 60 mm×15 mm cell culture dishes (Corning Incorporated, Corning, N.Y.) until 70-80% confluency. Then, cells were exposed to NADH or NAD^+ (both from Sigma-Aldrich) in culture medium for a total of 24 h. After dissociation with 0.125% trypsin-ethylenediaminetetraacetic acid (EDTA), 40 μL of 0.4% Trypan-blue (Sigma) was added to each well of a 6-well plate, and a Trypan-blue exclusion viability assay was performed. SCN5A cells were tolerant of a wide range of NADH or NAD^+ concentrations from 150 to 300 μM (data not shown). […] All NAD(H) containing solutions were made fresh daily.

[4] = test system: SCN5A^+/− mouse heart; experiment: Ventricular arrhythmogenesis in Langendorff-perfused SCN5A+/- mouse heart (MAP recording, PES)
Experimental: Hearts from mice genetically modified to ablate one allele of SCN5A were isolated and Langendorff-perfused (3 ml/min at 37° C.) with Krebs-Henseleit solution (in mM: 119 NaCl, 25 NaHCO3, 4 KCl, 1.2 KH2PO4, 1 MgCl2, 1.8 CaCl2, 10 glucose and 2 sodium pyruvate) and allowed to beat intrinsically for 10 min. Monophasic action potentials (MAPs) were recorded using a MAP electrode (Harvard Apparatus, UK) placed on left ventricular epicardial surface. MAP signals were amplified, band-pass filtered (0.5 Hz to 1 kHz: Neurolog NL900D), digitized (1401, Cambridge Electronic Design, Cambridge, UK) and acquired using Spike 2.5 (Cambridge Electronic Design) at a 5 KHz sampling rate. A custom made, paired-platinum electrode was placed on right ventricle and used to deliver 2 ms ([…], twice the threshold) stimuli (GRASS S48 stimulator) to pace the heart at different intervals. The standard pacing protocol consisted of 8 Hz stimuli (basic cycle length, BCL 125 ms) and was delivered for 20 min to measure MAPs. This was followed by programmed electrically stimulation (PES) consisting of trains of eight paced stimuli at 125 ms BCL (S1) followed by an extra stimulus (S2). […] PES was repeated three times before and three times after the drug application in each heart. NAD^+ was perfused for 20 min to assess its anti-arrhythmic effect. Selected recordings were imported to Microsoft Excel for further statistical analysis. Average APD90 (action potential duration) was calculated by averaging 240 MAPs recorded at three different locations on each heart (80 MAPs at each location). These studies were approved by the Institutional Review Board.

[5] = 100 μM intracellular (pipette solution), at 10 min
[6] = 300 μM extracellular, overnight incubation

T1 sequence (Q14524 whole entry): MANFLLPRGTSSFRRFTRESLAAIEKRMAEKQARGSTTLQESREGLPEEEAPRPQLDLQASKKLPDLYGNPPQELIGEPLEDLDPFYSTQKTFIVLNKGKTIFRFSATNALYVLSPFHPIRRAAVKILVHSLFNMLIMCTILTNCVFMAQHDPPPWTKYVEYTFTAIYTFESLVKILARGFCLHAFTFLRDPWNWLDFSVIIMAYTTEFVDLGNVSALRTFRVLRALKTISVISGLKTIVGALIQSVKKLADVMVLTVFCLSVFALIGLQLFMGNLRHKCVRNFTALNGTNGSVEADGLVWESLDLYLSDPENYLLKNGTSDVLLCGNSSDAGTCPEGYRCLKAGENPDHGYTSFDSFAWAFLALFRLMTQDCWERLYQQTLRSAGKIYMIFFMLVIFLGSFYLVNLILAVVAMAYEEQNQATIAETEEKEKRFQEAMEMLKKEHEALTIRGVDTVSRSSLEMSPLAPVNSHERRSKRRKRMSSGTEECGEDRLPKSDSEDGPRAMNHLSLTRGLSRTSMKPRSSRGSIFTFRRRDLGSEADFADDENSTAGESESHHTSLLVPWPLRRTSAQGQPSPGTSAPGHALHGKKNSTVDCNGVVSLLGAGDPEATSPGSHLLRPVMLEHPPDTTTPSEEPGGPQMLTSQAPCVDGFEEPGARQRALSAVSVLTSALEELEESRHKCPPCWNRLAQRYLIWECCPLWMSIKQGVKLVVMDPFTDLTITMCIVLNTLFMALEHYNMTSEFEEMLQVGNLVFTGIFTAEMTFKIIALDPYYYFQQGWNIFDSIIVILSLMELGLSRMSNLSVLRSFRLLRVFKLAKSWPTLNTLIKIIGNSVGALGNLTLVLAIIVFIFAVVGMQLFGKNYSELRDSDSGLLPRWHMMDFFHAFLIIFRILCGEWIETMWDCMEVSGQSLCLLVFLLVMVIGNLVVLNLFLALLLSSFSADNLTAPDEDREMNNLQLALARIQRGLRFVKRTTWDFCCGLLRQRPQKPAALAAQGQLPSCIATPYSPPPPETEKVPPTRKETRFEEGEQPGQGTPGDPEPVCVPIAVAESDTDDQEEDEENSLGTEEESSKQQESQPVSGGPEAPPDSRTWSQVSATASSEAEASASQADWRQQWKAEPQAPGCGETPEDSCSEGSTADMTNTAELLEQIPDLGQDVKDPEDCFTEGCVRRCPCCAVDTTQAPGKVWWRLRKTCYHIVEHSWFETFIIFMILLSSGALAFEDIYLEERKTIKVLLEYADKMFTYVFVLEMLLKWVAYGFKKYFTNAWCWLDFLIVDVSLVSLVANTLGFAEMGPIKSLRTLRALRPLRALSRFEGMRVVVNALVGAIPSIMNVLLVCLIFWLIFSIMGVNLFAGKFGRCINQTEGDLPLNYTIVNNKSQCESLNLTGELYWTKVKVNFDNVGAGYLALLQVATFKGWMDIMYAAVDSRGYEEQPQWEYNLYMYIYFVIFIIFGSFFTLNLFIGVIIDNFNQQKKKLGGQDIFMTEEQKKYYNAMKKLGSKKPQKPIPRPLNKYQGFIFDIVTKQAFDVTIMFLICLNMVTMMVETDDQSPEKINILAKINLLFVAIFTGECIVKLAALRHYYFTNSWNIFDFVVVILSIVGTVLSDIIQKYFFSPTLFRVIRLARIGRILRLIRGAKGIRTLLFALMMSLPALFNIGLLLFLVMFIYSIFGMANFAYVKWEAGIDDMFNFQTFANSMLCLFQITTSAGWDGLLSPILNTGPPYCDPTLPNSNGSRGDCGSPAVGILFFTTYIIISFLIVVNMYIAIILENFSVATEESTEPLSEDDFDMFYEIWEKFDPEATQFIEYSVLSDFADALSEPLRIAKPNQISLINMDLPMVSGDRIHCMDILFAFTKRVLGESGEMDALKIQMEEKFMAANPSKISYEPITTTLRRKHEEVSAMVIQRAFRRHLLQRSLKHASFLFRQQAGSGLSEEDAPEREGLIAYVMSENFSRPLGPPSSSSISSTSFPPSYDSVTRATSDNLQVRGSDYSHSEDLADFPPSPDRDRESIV

| SMILES | decrease in Na+ current (peak current) [1, 5] | decrease in whole cell peak conductance ([1]; 300 μM extracellular, overnight) | decrease in peak Na+ current [1, 6] | reduction in membrane-associated, GFP-tagged Na+ channels ([2]; overnight incubation with NADH, fluorescent microscopy) | tolerated concentration range (cell viability) [3] | tolerated concentration range (dose-dependent cell viability) [3] | hearts in which PES failed to induce VT ([4]; SCN5A+/- hearts after 20 min perfusion with 100 μM, VT in 6 out of 6 before) | reversibility: hearts with PES-induced VTs after removal ([4]; SCN5A+/- hearts, NAD+ removed) | MAP duration or morphology ([4]; perfusion for 20 min with 100 μM) | APD90 ([4]; six SCN5A+/- hearts, 20 min perfusion with 100 μM, BCL 125 ms) | effect on Na+ current density (in words) ([1]; 100 μM in internal (pipette) solution, versus SCN5A) | increase in Na+ current (peak current) [1, 5] | effect on peak Na+ current (in words) [1, 6] | effect on peak Na+ current (in words) ([1]; 300 μM extracellular, overnight incubation, listed as NAD+) | increase in whole cell peak conductance ([1]; 300 μM extracellular, overnight, n=9) | effect on the Na+ current reduction caused by MT GPD1-L (A280V) ([1]; SCN5A cells co-transfected with MT GPD1-L, external NAD+ 300 μM) | shift of activation curve ([1]; WT SCN5A cells, versus SCN5A cell) | shift of inactivation curve ([1]; versus SCN5A cell) | effect on Na+ channel protein (GFP fluorescence, in words) ([2]; 300 μM overnight, versus control SCN5A-GFP cells) | effect on the NADH-induced reduction of Na+ current ([1]; apocynin 100 μM added 4-6 h before and during extracellular NADH incubation) |
| --- | --- | --- | --- | --- | --- | --- | --- | --- | --- | --- | --- | --- | --- | --- | --- | --- | --- | --- | --- | --- |
| NC(=O)C1=CN([C@@H]2O[C@H](COP(=O)(O)OP(=O)(O)OC[C@H]3O[C@@H](n4cnc5c(N)ncnc54)[C@H](O)[C@@H]3O)[C@@H](O)[C@H]2O)C=CC1 [NADH, nicotinamide adenine dinucleotide] | 51% and 55.5% | 71.4% | 65.7±6.6% and 74.9% | 6.1 fold | 150 to 300 µM | 150 to 300 µmol/L | – | – | – | – | – | – | – | – | – | – | – | – | – | – |
| NC(=O)c1ccc[n+]([C@H]2O[C@@H](COP(=O)(O)OP(=O)(O)OC[C@@H]3O[C@H](n4cnc5c(N)ncnc54)[C@H](O)C3O)C(O)[C@H]2O)c1 (stereo partly drawn) [NAD^+, nicotinamide adenine dinucleotide] | – | – | – | – | 150 to 300 µM | – | 5 out of 6 | 4 out of 6 and reversible | no significant change | 27.9 ± 1.9 ms | significantly higher | 77% and 66.6% | increase in peak current; also recorded: increased sodium current | largely restored peak current | 30.3% | prevented the loss of peak current; also recorded: increased Na^+ current at all activation potential; also recorded: reverses the decrease in peak current; also recorded: largely prevented; also recorded: prevent the reduction in Na^+ current | shift more positive | more positive | increased GFP fluorescence; also recorded: increases Na^+ channel protein | – |
| COc1cc(C(C)=O)ccc1O [apocynin, reference compound] | – | – | – | – | – | – | – | – | – | – | – | – | – | – | – | – | – | – | – | abolished the effect of NADH on Na^+ current; also recorded: inhibited the effect of NADH on Na^+ currents |
